Source: PMC8536575, “Acute effects of the imidacloprid metabolite desnitro-imidacloprid on human nACh receptors relevant for neuronal signaling” (Archives of Toxicology, 2021)
Blank lines part the entries; values can stand above or below the compound they belong to.

Legend:
[1] = tested on: nAChRs on LUHMES neurons; set-up: method as in Loser et al. [2021a]; conditions: ref Loser et al. [2021a]; cited from earlier work
[2] = target: T1, human α3β4 nAChR (Homo sapiens, UniProt P30926+P32297); experiment: Two-electrode voltage-clamp recordings, Xenopus laevis oocytes expressing human α3β4 nAChR; type: cell-based
T1 construct: expressed in transfected cells; host or cells: Xenopus laevis oocytes, mRNA injection, 0.33 ng α3 and 3.33 ng β4

[3] = target: T2, human α7 nAChR (Homo sapiens, UniProt P36544); experiment: Two-electrode voltage-clamp recordings, Xenopus laevis oocytes expressing human α7 nAChR; type: cell-based; conditions: for inward currents: tested up to 100 µM range
T2 construct: expressed in transfected cells; host or cells: Xenopus laevis oocytes, injection of 30 ng mRNA (pCDNA3.1, T7 transcript)

[4] = tested on: mice; conditions: ref Chao and Casida [1997], cited from earlier work
[5] = target: T3, human α4β2 (LS) nAChR (Homo sapiens, UniProt P17787+P43681); experiment: Two-electrode voltage-clamp recordings, Xenopus laevis oocytes expressing human α4β2 (LS) nAChR; type: cell-based; conditions: tested concentration range ≤ 100 µM
T3 construct: expressed in transfected cells; host or cells: Xenopus laevis oocytes, mRNA injection, 10 ng α4 and 1 ng β2
Excerpt: (§1) The human α7 nAChR subunit was cloned in the pCDNA3.1 vector.
(§2) For the generation of the mRNA for injection, the plasmid DNAs of α3, α4, β2, and β4 were linearized with the NotI restriction endonuclease (New England Biolabs) and the plasmid DNA of α7 was linearized with the XbaI restriction endonuclease (New England Biolabs). The mRNAs of α3, α4, β2, and β4 were generated by in vitro transcription using the mMESSAGE mMACHINE SP6 Transcription Kit (Invitrogen). For the generation of α7 mRNA, the mMESSAGE mMACHINE T7 Transcription Kit (Invitrogen) was used. For the separation of the DNA and mRNA, a phenol–chloroform extraction (Chomczynski and Sacchi [2006]) was performed. The mRNA was then obtained by ethanol precipitation from the aqueous phase; for quantification, the BioPhotometer (Eppendorf) was used.
(§3) The recordings of human α7, α3β4, α4β2, and α4β4 nAChRs expressed in Xenopus laevis oocytes (EcoCyte Bioscience) were performed in two-electrode voltage-clamp mode using the Roboocyte2 system and the corresponding software (version 1.4.1; Multi Channel Systems MCS). Prior to the recordings, the oocytes were maintained at 19 °C in modified Barth’s solution containing [mM]: 88 NaCl, 1 KCl, 0.33 Ca(NO3)2, 0.82 MgSO4, 2.4 NaHCO3, 0.41 CaCl2, 5 Tris, 100 U/ml penicillin, 100 µg/ml streptomycin, pH 7.4.
(§4) To express human α7 nAChR, we injected 50 nl of mRNA solution (30 ng mRNA) per oocyte, using the Roboinject and the corresponding software (version 1.2.1; Multi Channel Systems MCS). […]
(§5) The baseline correction of voltage-clamp oocyte recordings was performed with the Roboocyte2 + software (version 1.4.3; Multi Channel Systems MCS, Germany). The maximal current influx and further analysis were executed in scripts written in R. In the antagonist experiments with oocytes, the maximal inward current was determined for the last response of each period (control, three antagonist concentrations, and washout).

[6] = target: T4, human α4β4 nAChR (Homo sapiens, UniProt P30926+P43681); experiment: Two-electrode voltage-clamp recordings, Xenopus laevis oocytes expressing human α4β4 nAChR; type: cell-based; conditions: tested concentration range ≤ 100 µM
T4 construct: expressed in transfected cells; host or cells: Xenopus laevis oocytes, mRNA injection, 3.33 ng α4 and 3.33 ng β4
Excerpt: as §1, §2, §3, §4, §5

[7] = target: T5, human α4β2 (HS) nAChR (Homo sapiens, UniProt P17787+P43681); experiment: Two-electrode voltage-clamp recordings, Xenopus laevis oocytes expressing human α4β2 (HS) nAChR; type: cell-based
T5 construct: expressed in transfected cells; host or cells: Xenopus laevis oocytes (EcoCyte Bioscience), mRNA injection, 3 ng α4 and 30 ng β2

[8] = tested on: nAChRs on LUHMES neurons; experiment: High-throughput Ca2+-imaging of LUHMES neurons (agonist effect); type: cell-based, human
Description: For Ca^2+-imaging, the cells were pre-differentiated for 48 h in cell culture flasks, detached and plated at a density of 20,000 cells and 30,000 cells per well on 0.1% PEI-coated 384-well and 96-well plates (Greiner Bio-One), respectively, for the Ca^2+-imaging. The cells were further differentiated for another 7 days. 50% of the medium was exchanged every 2–3 days.
(§6) Ca^2+-imaging was performed using HT Functional Drug Screening System FDSS/µCELL (Hamamatsu Photonics) at nominal 37 °C. The FDSS/µCell system enables the indirect recording of changes of [Ca^2+]i via a Ca^2+-sensitive fluorescent dye. The fluorescence signal of a complete 384-well plate is acquired at once with a high-speed and high-sensitivity digital ImagEM X2 EM-CCD camera (Electron Multiplying Charge-Coupled Device, Hamamatsu Photonics), but with limited spatial resolution. Therefore, the software only determines the mean fluorescence signal of each well rather than of individual cells. For compound application, the integrated dispenser head with 384 pipette tips was used, which can add the test compound to all wells simultaneously. Cells were preincubated with Cal-520 AM (AAT Bioquest) at a concentration of 1 µM for 1 h at 37 °C. For recording, the medium was exchanged by a buffer solution containing [mM]: 135 NaCl, 5 KCl, 0.2 MgCl2, 2.5 CaCl2, 10 HEPES, and 10 D-glucose, pH 7.4. Test compound application was executed after obtaining a 1.5 min baseline recording. Where applicable, a second application was executed 4.5 min after the first application. The total recording never exceeded 8 min.
(§7) For the high-throughput Ca^2+-imaging data obtained in LUHMES cells, an offset correction using the FDSS software (version 3.2) was performed. Afterward, the data were exported and further analyzed with scripts written in R (version 3.6.3) (R Core Team [2020]). The concentration–response curves were fitted using a log-logistic model described by Ritz et al. ([2015]), utilizing the R package drc with its function drm() and LL2.2() with the following equation: f(x) = d/[1 + exp(b(log(x) − ẽ))] (Ritz et al. [2015]). The logarithm of the half-maximal effective concentration (logEC50) between 0 and the upper limit (d), which was set to 1, is represented by ẽ, x denotes the concentration, and b stands for the slope parameter (Ritz et al. [2015]). In cases with normalizations to responses induced by other compounds, the function LL2.3() was used with a variable upper limit (d; Ritz et al. [2015]). The same equation was used to determine the half-maximal inhibitory concentration (logIC50). Then the logEC50 and logIC50 values were converted into the pIC50 and pEC50 values, which are the negative logarithms to base 10.

[9] = tested on: nAChRs on LUHMES neurons; experiment: Desensitization of nAChR agonist-evoked [Ca2+]i responses of LUHMES neurons; type: cell-based, human; conditions: pretreatment […], 3 µM nicotine
Description: as §6, §7
Fig. 4 Desensitizing effects of DN-IMI and IMI-olefin on nAChRs. LUHMES neurons differentiated in 384-well plates were pretreated with various concentrations of DN-IMI or IMI-olefin for 4.5 min before different nAChR agonists were applied and [Ca^2+]i signals were recorded. […] Note the treatment scheme (upper right corner), illustrating the experimental design. […] Note the treatment scheme (upper right corner), illustrating the experimental design. Detailed data on n numbers are found in Table S6

[10] = tested on: nAChRs on LUHMES neurons; experiment: Inhibition of DN-IMI-evoked [Ca2+]i responses of LUHMES neurons by nAChR antagonists; type: cell-based, human; conditions: for pIC50 for inhibition of DN-IMI-induced [Ca2+]i response: antagonist pretreatment, DN-IMI 0.5 µM
Description: as §6, §7
LUHMES neurons differentiated in 384-well plates were pretreated with various concentrations of nAChR antagonists before DN-IMI (0.5 µM) was applied in Ca^2+-imaging experiments. […] Note the treatment scheme (upper right corner), illustrating the experimental design. […] Detailed data on n numbers are found in Table S6

[11] = tested on: nAChRs on SH-SY5Y cells; experiment: Inhibition of DN-IMI-evoked [Ca2+]i response of SH-SY5Y cells by mecamylamine; type: cell-based, human; conditions: Mec 125 µM, presence of PNU (10 µM)
[12] = tested on: human α3β2 nAChRs; set-up: method as in Chavez-Noriega et al. [2000]; conditions: ref Chavez-Noriega et al. [2000]; cited from earlier work
[13] = in vitro; conditions: human, hepatocytes
Excerpt: Renal clearance for DN-IMI was assumed to be governed only by passive processes, with both filtration and passive reabsorption being accounted for. Passive permeability was scaled from the predicted permeability in the intestine (Peff 0.37 10-4 cm/s) accounting for the surface area of the proximal tubules in the kidney.

[14] = from curve-fitted concentration–response data

T5 sequence (P43681 27-627): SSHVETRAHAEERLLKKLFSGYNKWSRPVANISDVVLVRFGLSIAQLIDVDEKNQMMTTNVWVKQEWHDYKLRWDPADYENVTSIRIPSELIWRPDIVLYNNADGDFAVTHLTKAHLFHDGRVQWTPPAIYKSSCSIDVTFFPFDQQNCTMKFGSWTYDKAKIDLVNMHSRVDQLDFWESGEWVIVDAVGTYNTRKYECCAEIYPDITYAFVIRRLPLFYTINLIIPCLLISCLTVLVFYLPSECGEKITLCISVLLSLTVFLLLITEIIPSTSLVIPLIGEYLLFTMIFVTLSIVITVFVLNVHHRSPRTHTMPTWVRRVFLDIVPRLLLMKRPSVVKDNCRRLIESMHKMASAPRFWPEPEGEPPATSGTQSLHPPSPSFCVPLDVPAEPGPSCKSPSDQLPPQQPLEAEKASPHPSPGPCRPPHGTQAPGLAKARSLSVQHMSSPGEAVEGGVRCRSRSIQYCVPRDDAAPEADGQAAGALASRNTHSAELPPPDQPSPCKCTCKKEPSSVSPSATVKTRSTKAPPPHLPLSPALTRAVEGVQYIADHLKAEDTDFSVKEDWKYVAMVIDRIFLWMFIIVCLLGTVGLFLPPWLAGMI
T5 sequence (P17787 26-502): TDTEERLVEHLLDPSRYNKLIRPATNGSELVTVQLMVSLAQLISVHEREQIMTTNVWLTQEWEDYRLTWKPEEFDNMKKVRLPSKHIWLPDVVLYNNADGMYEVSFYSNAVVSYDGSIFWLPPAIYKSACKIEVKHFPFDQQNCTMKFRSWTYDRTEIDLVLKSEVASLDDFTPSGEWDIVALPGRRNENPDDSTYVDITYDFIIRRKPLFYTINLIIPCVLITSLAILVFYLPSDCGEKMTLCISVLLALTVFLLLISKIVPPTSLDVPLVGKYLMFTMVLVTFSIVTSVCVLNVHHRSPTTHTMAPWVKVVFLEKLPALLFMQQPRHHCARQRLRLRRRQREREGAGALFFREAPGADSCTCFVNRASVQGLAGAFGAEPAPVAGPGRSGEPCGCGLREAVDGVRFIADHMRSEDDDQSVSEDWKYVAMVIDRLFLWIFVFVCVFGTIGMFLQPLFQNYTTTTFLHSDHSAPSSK
T1 sequence (P32297 32-505): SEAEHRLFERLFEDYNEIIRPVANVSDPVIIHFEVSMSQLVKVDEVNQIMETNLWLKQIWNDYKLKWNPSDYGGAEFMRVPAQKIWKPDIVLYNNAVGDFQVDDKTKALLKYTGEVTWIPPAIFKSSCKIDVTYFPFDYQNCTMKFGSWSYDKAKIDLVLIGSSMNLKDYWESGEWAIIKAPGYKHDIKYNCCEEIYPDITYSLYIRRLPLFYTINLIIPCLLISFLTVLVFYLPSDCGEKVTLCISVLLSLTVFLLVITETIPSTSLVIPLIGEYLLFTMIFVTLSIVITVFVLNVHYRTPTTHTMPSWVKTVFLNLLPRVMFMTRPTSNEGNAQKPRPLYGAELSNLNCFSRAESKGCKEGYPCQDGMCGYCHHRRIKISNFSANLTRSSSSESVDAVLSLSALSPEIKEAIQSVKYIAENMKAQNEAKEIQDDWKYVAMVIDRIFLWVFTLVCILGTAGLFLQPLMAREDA
T1 sequence (P30926 22-498): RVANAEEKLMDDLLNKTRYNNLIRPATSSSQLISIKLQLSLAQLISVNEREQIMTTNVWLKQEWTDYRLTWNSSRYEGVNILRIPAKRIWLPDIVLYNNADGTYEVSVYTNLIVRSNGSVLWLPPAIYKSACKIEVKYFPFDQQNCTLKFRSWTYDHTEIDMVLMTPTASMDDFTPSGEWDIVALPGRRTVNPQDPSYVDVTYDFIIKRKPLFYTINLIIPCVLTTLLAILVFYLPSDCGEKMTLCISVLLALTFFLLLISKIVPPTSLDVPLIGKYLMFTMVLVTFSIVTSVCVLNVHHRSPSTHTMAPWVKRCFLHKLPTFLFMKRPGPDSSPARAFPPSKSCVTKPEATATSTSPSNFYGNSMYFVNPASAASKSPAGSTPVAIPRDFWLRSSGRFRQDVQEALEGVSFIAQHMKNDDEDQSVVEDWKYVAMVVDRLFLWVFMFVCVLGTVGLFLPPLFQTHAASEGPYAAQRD
T2 sequence (P36544 23-502): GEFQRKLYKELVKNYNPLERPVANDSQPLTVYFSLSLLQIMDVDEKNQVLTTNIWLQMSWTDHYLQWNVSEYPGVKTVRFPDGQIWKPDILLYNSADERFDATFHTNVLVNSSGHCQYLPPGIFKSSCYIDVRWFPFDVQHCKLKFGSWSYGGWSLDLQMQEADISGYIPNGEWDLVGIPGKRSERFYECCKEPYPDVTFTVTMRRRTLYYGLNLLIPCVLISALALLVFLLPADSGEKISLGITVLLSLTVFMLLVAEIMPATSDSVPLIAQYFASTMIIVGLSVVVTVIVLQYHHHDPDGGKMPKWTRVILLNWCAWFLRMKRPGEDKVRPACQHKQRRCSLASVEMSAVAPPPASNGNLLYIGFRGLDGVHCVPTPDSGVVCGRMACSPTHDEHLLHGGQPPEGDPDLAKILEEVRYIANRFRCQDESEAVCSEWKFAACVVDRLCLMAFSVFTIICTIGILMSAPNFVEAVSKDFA
T3 sequence (P43681 27-627): as the sequence (P43681 27-627) above
T3 sequence (P17787 26-502): as the sequence (P17787 26-502) above
T4 sequence (P43681 27-627): as the sequence (P43681 27-627) above
T4 sequence (P30926 22-498): as the sequence (P30926 22-498) above

Structure (SMILES): CC(=O)OCC[N+](C)(C)C [ACh, Acetylcholine chloride]
pEC50 in LUHMES neurons [1]: ~ 6.0

Structure (SMILES): O=[N+]([O-])NC1=NCCN1Cc1ccc(Cl)nc1 [IMI, imidacloprid]
inward currents ([2]; concentration-dependent, up to 100 µM): small but significant inward currents | inward currents [3]: significant inward currents but with a lower potency and efficacy than DN-IMI | LD50 ([4]; Tomizawa et al. [2000], [2001]): 35 to 50 mg/kg | activation of the receptor [5]: did not trigger a concentration-dependent activation | activation of the receptor [6]: did not trigger a concentration-dependent activation | activation of the receptor ([7]; tested concentration range ≤ 100 µM): did not trigger a concentration-dependent activation

Structure (SMILES): O=[N+]([O-])Nc1nccn1Cc1ccc(Cl)nc1 [IMI-olefin, imidacloprid-olefin]
inward currents [3]: significant inward currents but with a lower potency and efficacy than DN-IMI | lethality ([4]; highest tested dose of 50 mg/kg): no lethality | pEC50 of [Ca2+]i response (peak amplitude) ([8]; LUHMES neurons, absence of PNU, normalized to the maximal response stimulated by DN-IMI, tested ≤ 100 µM): not reached within the measurement range | pEC50 of [Ca2+]i response in the presence of PNU ([8]; PNU 10 µM, normalized to maximal response to IMI-olefin in presence of PNU): 5.5 | response as % of the maximal response to DN-IMI ([8]; at 30–100 µM): around 15% | pIC50 for desensitization of the nicotine-evoked response [9]: 4.9

pIC50 for inhibition of DN-IMI-induced [Ca2+]i response [10]: 6.8 ± 0.03
Structure (SMILES): CC[N+](CC)(CC)CCOc1ccc(/C=C/c2ccccc2)cc1 [MG 624]

Structure (SMILES): CCN1C[C@]2(COC(=O)c3ccccc3N3C(=O)C[C@H](C)C3=O)CC[C@H](OC)[C@@]34[C@@H]5C[C@H]6[C@H](OC)[C@@H]5[C@](O)(C[C@@H]6OC)[C@@](O)([C@@H](OC)[C@H]23)[C@@H]14 [MLA, Methyllycaconitine, reference compound]
pIC50 for inhibition of DN-IMI-induced [Ca2+]i response [10]: 6.8 ± 0.03 | block of DN-IMI-triggered inward current ([3]; DN-IMI 30 µM): concentration-dependently and reversibly blocked

pIC50 for inhibition of DN-IMI-induced [Ca2+]i response [10]: 6.8 ± 0.03
Structure (SMILES): CNC1(C)C2CCC(C2)C1(C)C (stereo not shown) [Mec, Mecamylamine]
block of DN-IMI-induced [Ca2+]i response in SH-SY5Y [11]: strongly blocked | block of DN-IMI-triggered inward current ([7]; DN-IMI 1 µM): concentration-dependently and reversibly blocked | pIC50, literature data for human α3β2 nAChRs [12]: 6.6

Structure (SMILES): COc1cc2c3cc1Oc1cc(ccc1O)C[C@@H]1c4c(cc(OC)c(O)c4Oc4ccc(cc4)C[C@@H]3N(C)CC2)CC[N+]1(C)C [Tubo, (+)-Tubocurarine chloride pentahydrate]
block of DN-IMI-triggered inward current ([2]; DN-IMI 30 µM): concentration-dependently and reversibly blocked | pIC50 for inhibition of DN-IMI-induced [Ca2+]i response [10]: 5.9 | block of DN-IMI-evoked response ([10]; at 100 µM): completely blocked

Structure (SMILES): CN1CCC[C@H]1c1cccnc1 [nicotine, (-)-Nicotine, reference compound]
absolute EC25 [2, 14]: 27.5 µM | estimated maximum ([2]; normalized to nicotine (1 mM)): ~ 1 | absolute EC25 [3, 14]: 30.2 µM | estimated maximum ([3]; normalized to nicotine (1 mM)): ~ 1 | pEC50 in LUHMES neurons [1]: ~ 6.0 | higher potency on α4β2 (HS) nAChR than on other subtypes ([7]; comparison of EC25 values, α4β2 (HS) vs α7 and α3β4): > 2 log-step | absolute EC25 [7, 14]: 0.17 µM

hepatocyte CLint [13]: 379 µL/min/1e6 cells
Structure (SMILES): C[C@]12C=CC(=O)C=C1CC[C@@H]1[C@@H]2[C@@H](O)C[C@@]2(C)[C@H]1CC[C@]2(O)C(=O)CO [prednisolone, reference compound]
